# Results reported in patent US20200031811A1, “SUBSTITUTED MONO- AND POLYAZANAPHTHALENE DERIVATIVES AND THEIR USE” (Basilea Pharmaceutica International AG, priority 2015, published 2020).
# pIC50: −log10 of the molar value.
# Key:
# [1] = target: T1, MNK1 (Homo sapiens, UniProt Q9BUB5); test: MNK inhibition assay (Z-Lyte kinase assay, Ser/Thr 7 peptide); assay type: biochemical; conditions: for pIC50: recombinant GST-MNK1, 3 hours at 31° C.
# T1 construct: purchased Life Technologies or Carna Biosciences PV6023 or 02-145; host or cells: baculovirus infected insect cells
# T1 sequence (Q9BUB5 whole entry): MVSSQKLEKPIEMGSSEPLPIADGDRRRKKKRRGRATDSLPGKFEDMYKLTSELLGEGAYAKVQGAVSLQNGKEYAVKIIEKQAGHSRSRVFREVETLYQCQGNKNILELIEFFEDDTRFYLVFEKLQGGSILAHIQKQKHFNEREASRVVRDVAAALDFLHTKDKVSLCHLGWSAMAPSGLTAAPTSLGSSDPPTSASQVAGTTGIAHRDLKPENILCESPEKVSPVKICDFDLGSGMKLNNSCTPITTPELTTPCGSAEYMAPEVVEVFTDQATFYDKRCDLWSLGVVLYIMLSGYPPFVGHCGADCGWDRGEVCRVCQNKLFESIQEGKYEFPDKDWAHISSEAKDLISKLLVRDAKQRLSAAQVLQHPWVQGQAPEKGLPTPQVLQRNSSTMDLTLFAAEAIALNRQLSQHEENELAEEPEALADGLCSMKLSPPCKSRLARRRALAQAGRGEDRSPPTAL
# Summary of the method: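 Recombinant GST-MNK1 from baculovirus-infected insect cells, Z-Lyte Ser/Thr 7 peptide, enzyme set for ~30% phosphorylation in buffer-only wells; 3 hours at 31° C. Compounds at 50–10000 nM (potent ones down to 0.5 nM), at least duplicate. IC50 from % substrate phosphorylation versus buffer-only wells, fluorescence read-out.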
# [2] = tested on: human pancreatic cancer cell line MiaPaCa2 (ATCC CRL-1420); test: Cell growth assay (CellTiterGlo, 72 hours); assay type: cell-based; conditions: for inhibition at 100 µM: MIA PaCa-2, at 100 μM, read-out: Inhibition of MiaPaCa growth at indicated concentration; for pIC50: MIA PaCa-2, MiaPaCa2 cells, 72 hours, read-out: IC50 MiaPaCa
# Summary of the method: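 MiaPaCa2 cells (10^3/well) seeded in supplemented DMEM overnight, then exposed in quadruplicate to compound at 100 down to 0.1 μM for 72 h at 37° C. Growth read by CellTiterGlo luminescence, medium-only background subtracted, normalised to untreated cells; IC50 = concentration reducing growth to 50%.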
# [3] = read-out: Inhibition of MNK1 activity at indicated concentration
SMILES,"inhibition at 1 µM [1, 3]",pIC50 [2],pIC50 [1],"inhibition at 10 µM ([1]; at 10 μM, read-out: Inhibition of MNK1 activity at indicated concentration)",inhibition at 100 µM [2]
NCCCOCc1ccc2cncc(-c3ccc(Cl)cc3)c2c1 [Example 106],34%,4.68,–,–,–
Nc1ncc(-c2ccc(F)c(F)c2)c2cc(CN3CCC(N)CC3)cc(Cl)c12 [Example 285],–,5.17,6.82,–,–
c1ccc2oc(-c3cncc4ccc(NCC5CCNCC5)cc34)cc2c1 [Example 213],–,5.46,6.95,–,–
Oc1ccc(-c2cncc3ccc(CNC4CCNC4)cc23)cc1 (stereo not shown) [Example 41],–,–,6.60,–,67%
N[C@H]1CC[C@@H](Oc2ccc3cncc(-c4cc5ccccc5o4)c3c2)CC1 [Example 80],–,5.45,6.17,–,–
"CCOc1cc(CN2CCC(N)CC2)cc2c(-c3cc4ccccc4o3)cncc12 [Example 281, 1-[[4-(Benzofuran-2-yl)-8-ethoxy-6-isoquinolyl]methyl]piperidin-4-amine]",–,5.55,6.53,–,–
"NC1CCN(Cc2ccc3cncc(-c4ccc(NC(=O)Nc5ccc(Cl)cc5)cc4)c3c2)CC1 [Example 113, 1-[4-[6-[(4-Amino-1-piperidyl)methyl]-4-isoquinolyl]phenyl]-3-(4-chlorophenyl)urea]",–,5.04,5.50,–,–
NC1CCN(Cc2ccc3cncc(-c4cc5ccccc5[nH]4)c3c2)CC1 [Example 6],–,5.22,6.04,–,–
Nc1cc(-c2cncc3ccc(CN4CCC(N)CC4)cc23)ccn1 [Example 16],–,–,5.72,–,67%
NC1CCN(Cc2ccc3cncc(-c4cccc(CO)c4)c3c2)CC1 [Example 182],–,4.42,5.93,–,–
"NC1CCN(Cc2ccc3cncc(-c4ccco4)c3c2)CC1 [Example 177, 1-[[4-(2-Furyl)-6-isoquinolyl]methyl]piperidin-4-amine]",–,5.44,6.90,–,–
"N[C@H]1CC[C@H](Nc2ccc3cncc(-c4ccccc4)c3n2)CC1 [Example 303, trans-N4-(8-phenyl-1,6-naphthyridin-2-yl)cyclohexane-1,4-diamine]",–,5.02,7.51,–,–
CC(=O)c1ccc(-c2cncc3ccc(CN4CCC(N)CC4)cc23)cc1 [Example 185],–,4.66,6.07,–,–
"CN(C)C1CCN(Cc2ccc3cncc(-c4cc5ccccc5o4)c3c2)CC1 [Example 46, 1-[[4-(Benzofuran-2-yl)-6-isoquinolyl]methyl]-N,N-dimethyl-piperidin-4-amine]",–,5.09,6.21,–,–
NC1CCN(Cc2ccc3nncc(-c4ccc(O)cc4)c3c2)CC1 [Example 86],–,–,6.76,–,50%
NC1CCN(Cc2ccc3cncc(-c4ccc(NC(=O)Nc5cccc(Cl)c5)cc4)c3c2)CC1 [Example 114],–,5.42,5.92,–,–
"N#Cc1cc(CN2CCC(N)CC2)cc2c(-c3cc4ccccc4o3)cncc12 [Example 306, 6-[(4-Amino-1-piperidyl)methyl]-4-(benzofuran-2-yl)isoquinoline-8-carbonitrile]",–,5.04,6.75,–,–
"Nc1ncc2ccc(CNc3ccnc4ccccc34)cc2c1-c1cc2ccccc2o1 [Example 261, 4-(Benzofuran-2-yl)-6-[(4-quinolylamino)methyl]isoquinolin-3-amine]",–,5.40,7.27,–,–
NC1CCN(Cc2ccc3cncc(-c4ccc5cnccc5c4)c3c2)CC1 [Example 193],–,4.94,5.98,–,–
"Nc1ccc(Nc2ccc3cncc(-c4cc5ccccc5o4)c3c2)cn1 [Example 138, N5-[4-(Benzofuran-2-yl)-6-isoquinolyl]pyridine-2,5-diamine]",–,4.92,5.80,–,–
"CN(C)CCOc1ccc2cncc(-c3cc4ccccc4o3)c2c1 [Example 95, 2-[[4-(Benzofuran-2-yl)-6-isoquinolyl]oxy]-N,N-dimethyl-ethanamine]",–,5.08,5.76,–,–
"COc1cc2cncc(-c3cc4ccccc4o3)c2cc1CN1CCC(N)CC1 [Example 282, 1-[[4-(Benzofuran-2-yl)-7-methoxy-6-isoquinolyl]methyl]piperidin-4-amine]",–,5.33,6.82,–,–
Cn1nccc1Oc1ccc2cncc(-c3cc4ccccc4o3)c2c1 [Example 96],–,5.21,5.40,–,–
Nc1ncc(-c2cc(F)cc(F)c2)c2cc(CN3CCC(N)CC3)ccc12 [Example 222],–,5.46,5.72,–,–
COc1cc(CN2CCC(N)CC2)cc2c(-c3ccccc3)cnc(N)c12 [Example 259],–,5.89,7.18,–,–
Fc1cnccc1NCc1ccc2cncc(-c3cc4ccccc4o3)c2c1 [Example 70],–,4.91,7.49,–,–
COc1cc(CN2CCC(N)CC2)cc2c(-c3ccc(F)c(F)c3)cnc(N)c12 [Example 296],–,5.27,6.34,–,–
COc1ccc(-c2cncc3ccc(CN4CCC(N)CC4)cc23)cc1OC [Example 202],–,4.71,5.90,–,–
Cc1cc(NCc2ccc3cncc(-c4cc5ccccc5o4)c3c2)cc(C)n1 [Example 126],–,5.26,6.44,–,–
"N[C@H]1CC[C@H](Nc2cc3c(-c4cc5ccccc5o4)cncc3cc2Cl)CC1 [Example 140, N4-[4-(Benzofuran-2-yl)-7-chloro-6-isoquinolyl]cyclohexane-1,4-diamine]",–,5.73,8.00,–,–

# Further lines, with some results ahead:
"inhibition at 1 µM [1, 3]",pIC50 [2],pIC50 [1],"inhibition at 10 µM ([1]; at 10 μM, read-out: Inhibition of MNK1 activity at indicated concentration)",SMILES,inhibition at 100 µM [2]
45%,–,–,–,"NC(=O)c1ccc(-c2cncc3ccc(CN4CCC(N)CC4)cc23)cc1 [Example 20, 4-[6-[(4-Amino-1-piperidyl)methyl]-4-isoquinolyl]benzamide]",62%
–,4.89,7.05,–,"NCCCOCc1ccc2cncc(-c3cc4ccccc4o3)c2c1 [Example 105, 3-[[4-(Benzofuran-2-yl)-6-isoquinolyl]methoxy]propan-1-amine]",–
–,4.29,5.77,–,c1ccc2oc(-c3cncc4ccc(CN5CCCCC5)nc34)cc2c1 [Example 301],–
–,4.52,6.34,–,"CC(=O)Nc1ccc(-c2cncc3ccc(CN4CCC(N)CC4)cc23)cc1 [Example 18, N-[4-[6-[(4-Amino-1-piperidyl)methyl]-4-isoquinolyl]phenyl]acetamide]",–
–,5.23,6.71,–,"Nc1ncc(-c2ccccc2)c2cc(CN3CCC(N)CC3)c(Cl)cc12 [Example 264, 6-[(4-Amino-1-piperidyl)methyl]-7-chloro-4-phenyl-isoquinolin-1-amine]",–
–,4.79,6.10,–,NC1CCN(Cc2ccc3cncc(-c4ccc5ncccc5c4)c3c2)CC1 [Example 195],–
–,5.40,6.20,–,NC1CCN(Cc2ccc3cncc(-c4cc5ccncc5o4)c3c2)CC1 [Example 274],–
–,4.73,6.24,–,NCc1cccc(NCc2ccc3cncc(-c4cc5ccccc5o4)c3c2)c1 [Example 53],–
–,4.45,5.82,–,c1ccc2oc(-c3cncc4ccc(CN5CCCCC5)cc34)cc2c1 [Example 294],–
–,4.84,6.78,–,NCCCNCc1ccc2cncc(-c3ccc(O)cc3)c2c1 [Example 25],–
–,5.15,7.77,–,Cc1cnccc1NCc1ccc2cncc(-c3cc4ccccc4o3)c2c1 [Example 69],–
–,5.01,6.02,–,NC1CCN(Cc2ccc3cncc(-c4cnc5ccccc5c4)c3c2)CC1 [Example 173],–
–,5.08,6.64,–,NC1CCN(Cc2cc(F)c3cncc(-c4cc5ccccc5o4)c3c2)CC1 [Example 247],–
–,4.95,6.72,–,NC1CCN(Cc2ccc3cncc(-c4ccc(Cl)s4)c3c2)CC1 [Example 171],–
–,4.52,6.12,–,"NC1CCN(Cc2ccc3cncc(-c4cc5cccnc5o4)c3c2)CC1 [Example 273, 1-[(4-Furo{2,3-b}pyridin-2-yl-6-isoquinolyl)methyl]piperidin-4-amine]",–
–,5.34,5.67,–,N[C@@H]1CCN(Cc2ccc3cncc(-c4cc5ccccc5o4)c3c2)C[C@H]1F [Example 205],–
39%,4.49,–,–,N#Cc1cccc(-c2cncc3ccc(CN4CCC(N)CC4)cc23)c1 [Example 5],–
–,–,–,54%,"c1ccc(-c2cnnc3ccc(CN4CCNCC4)cc23)cc1 [Example 83, 4-Phenyl-6-(piperazin-1-ylmethyl)cinnoline]",31%
49%,–,–,–,NC(=O)c1cccc(-c2cncc3ccc(CN4CCC(N)CC4)cc23)c1 [Example 21],64%
–,5.09,7.25,–,c1coc(-c2cncc3ccc(CNc4ccnc5ccccc45)cc23)c1 [Example 208],–
–,5.49,5.96,–,"Nc1cc(Nc2ccc3cncc(-c4cc5ccccc5o4)c3c2)ccn1 [Example 137, N4-[4-(Benzofuran-2-yl)-6-isoquinolyl]pyridine-2,4-diamine]",–
–,5.60,7.96,–,"Nc1ncc(-c2cc3ccccc3o2)c2cc(CNc3ccncc3)ccc12 [Example 151, 4-(Benzofuran-2-yl)-6-[(4-pyridylamino)methyl]isoquinolin-1-amine]",–
–,5.13,7.06,–,"Nc1cc(CNc2ccc3cncc(-c4cc5ccccc5o4)c3c2)ccn1 [Example 190, N-[(2-Amino-4-pyridyl)methyl]-4-(benzofuran-2-yl)isoquinolin-6-amine]",–
